The results in this text go back to ChEMBL document CHEMBL4725297, “The discovery and evaluation of 3-amino-2(1H)-pyrazinones as a novel series of selective p38α MAP kinase inhibitors” (Bioorg Med Chem Lett, 2020).

Converted amounts (≈) assume the structure as drawn.

Series [1] can be described thus: Distribution coefficient, logD of the compound at pH 7.4. Particulars: octanol/water. It is filed as physicochemical.
Series [2] is described as follows: Aqueous solubility of the compound at pH 7.4. As to conditions: buffer. It is filed as physicochemical.
Series [3] is described as follows: Intrinsic clearance in rat hepatocytes assessed per 10^6 cells. In kind it is ADME, cell-based, Hepatocyte. Particulars: read-out: CLH.
Series [4] is described as follows: Half life in iv dosed rat. In kind it is ADME, organism-based. Particulars: in vivo.
A short description of series [5]: Clearance in iv dosed rat. It is filed as ADME, organism-based. Particulars: in vivo.
A short description of series [6]: Volume of distribution at steady state in iv dosed rat. It is filed as ADME, organism-based. Particulars: in vivo, read-out: Vdss.
Series [7] can be described thus: Oral bioavailability in rat. It is filed as ADME, organism-based. Particulars: in vivo.
Series [8] in a line: Clearance in iv dosed dog. Particulars: in vivo. In kind it is ADME, organism-based, Canis lupus familiaris.
The nature of series [9]: Volume of distribution at steady state in iv dosed dog. As to conditions: in vivo, read-out: Vdss. In kind it is ADME, organism-based, Canis lupus familiaris.
A short description of series [10]: Half life in iv dosed dog. It is filed as ADME, organism-based, Canis lupus familiaris. Particulars: in vivo.
Series [11] in a line: Apparent permeability of the compound by PAMPA. It is filed as ADME. (In general: In PAMPA a lipid-coated filter parts donor from acceptor wells.)
The nature of series [12]: Acid dissociation constant, pKa of the compound. In kind it is physicochemical.
Series [13] in a line: Clearance in iv dosed rat relative to hepatic blood flow. As to conditions: in vivo. In kind it is ADME, organism-based.
A short description of series [14]: Clearance in iv dosed dog relative to hepatic blood flow. Particulars: in vivo. It is filed as ADME, organism-based, Canis lupus familiaris.

As to `Cc1ccc(C(=O)NC2CC2)cc1-n1ccnc(N)c1=O`, in [1], the logD (in general, the decadic logarithm of the distribution of all forms, ionised or not, between an organic phase and buffer at a given pH) amounted to 0.4.

With `CNc1nccn(-c2cc(C(=O)NC3CC3)ccc2C)c1=O`, the logD in [1] came out at 1.1. The solubility – broadly, how much of the substance goes into solution per volume – in [2] (read-out: solubility) is > 1000 µM. For the same compound, in [3], the hepatocyte CLint worked out at 1.1 µL/min/1e6 cells.

For `Cc1ccc(C(=O)NC2CC2)cc1-n1ccnc(NCC2CCCCC2)c1=O`, the logD in series [1] turned out to be 3.7. Moreover, in series [2] (read-out: solubility), the solubility was determined as 340 µM (≈ 129 µg/mL). Also, the hepatocyte CLint in [3] worked out at 7.6 µL/min/1e6 cells.

Compound `Cc1ccc(C(=O)NC2CC2)cc1-n1ccnc(NC2CC2)c1=O` yielded a logD in [1] of 1.5. In series [2] (read-out: solubility), the solubility is > 1000 µM. Also, the hepatocyte CLint in series [3] is < 1 µL/min/1e6 cells.

Turning to `Cc1ccc(C(=O)NC2CC2)cc1-n1ccnc(N[C@@H](c2ccccc2)[C@@H](C)CN2CCOCC2)c1=O`, the logD in series [1] turned out to be 3.5. Besides, the solubility in series [2] (read-out: solubility) was found to be 216 µM (≈ 108 µg/mL). In series [3], the hepatocyte CLint is > 300 µL/min/1e6 cells.

`COc1ccc(CNc2nccn(-c3cc(C(=O)NC4CC4)ccc3C)c2=O)cc1` had a logD in [1] of 2.9. Also, the solubility in series [2] (read-out: solubility) was < 19 µM. Moreover, in series [3], the hepatocyte CLint was determined as 3.4 µL/min/1e6 cells.

As for `Cc1ccc(C(=O)NC2CC2)cc1-n1ccnc(N[C@@H](c2ccccc2)[C@@H](C)CN2CCN[C@H](C)C2)c1=O`, in series [1], the logD is 1.6. Also, the solubility in series [2] (read-out: solubility) came out at 847 µM (≈ 436 µg/mL). Further, in series [3], the hepatocyte CLint stood at 8.5 µL/min/1e6 cells.

For `Cc1ccc(C(=O)NC2CC2)cc1-n1ccnc(N[C@@H](c2ccccc2)[C@@H](C)CN2CCN(C)CC2)c1=O`, the logD in series [1] is 2.3. Moreover, the solubility in series [2] (read-out: solubility) came to 854 µM (≈ 440 µg/mL). Further, the hepatocyte CLint in [3] came to 30 µL/min/1e6 cells.

As for `Cc1ccc(C(=O)NC2CC2)cc1-n1ccnc(N[C@@H]2CCCc3ccccc32)c1=O`, the logD in series [1] was 3.7. Further, in series [2] (read-out: solubility), the solubility was determined as 168 µM (≈ 69.6 µg/mL). Moreover, in series [3], the hepatocyte CLint was found to be 140 µL/min/1e6 cells.

Consider `Cc1ccc(C(=O)NC2CC2)cc1-n1ccnc(N[C@@H](C)c2ccccc2)c1=O`, for which the logD in series [1] came to 3.1. For the same compound, the solubility in series [2] (read-out: solubility) turned out to be 50 µM (≈ 19.4 µg/mL). Further, the hepatocyte CLint in [3] was < 3 µL/min/1e6 cells.

With `Cc1ccc(C(=O)NC2CC2)cc1-n1ccnc(N2CCCC2c2ccccc2)c1=O` (racemic), in series [1], the logD stood at 3.3. The solubility in series [2] (read-out: solubility) was found to be 344 µM (≈ 143 µg/mL). The hepatocyte CLint in series [3] was found to be 120 µL/min/1e6 cells.

The compound `Cc1ccc(C(=O)NC2CC2)cc1-n1ccnc(N[C@@H](c2ccccc2)[C@@H](C)CN2CCN[C@@H](C)C2)c1=O` registered a logD in [1] of 1.5. Besides, the solubility in series [2] (read-out: solubility) is 783 µM (≈ 403 µg/mL). The hepatocyte CLint in series [3] was 14 µL/min/1e6 cells.

In the case of `COc1ccccc1CNc1nccn(-c2cc(C(=O)NC3CC3)ccc2C)c1=O`, in series [2] (read-out: solubility), the solubility amounted to 258 µM (≈ 104 µg/mL). Moreover, the hepatocyte CLint in series [3] stood at 22 µL/min/1e6 cells.

On to `Cc1ccc(C(=O)NC2CC2)cc1-n1ccnc(NCc2ccccc2OCCN2CCCC2)c1=O`, for which the logD in series [1] turned out to be 1.6. In series [2] (read-out: solubility), the solubility worked out at 670 µM (≈ 327 µg/mL). Moreover, in series [3], the hepatocyte CLint came to 55 µL/min/1e6 cells.

The compound `Cc1ccc(C(=O)NC2CC2)cc1-n1ccnc(NCCc2ccccc2)c1=O` showed a logD in series [1] of 3. Also, the solubility in series [2] (read-out: solubility) turned out to be 392 µM (≈ 152 µg/mL). Further, the hepatocyte CLint in series [3] is 130 µL/min/1e6 cells.

For the compound `Cc1ccc(C(=O)NC2CC2)cc1-n1ccnc(NC(C)(C)c2ccccc2)c1=O`, the logD in series [1] worked out at 3.1. Besides, the hepatocyte CLint in series [3] amounted to 19 µL/min/1e6 cells.

As to `Cc1ccc(C(=O)NC2CC2)cc1-n1ccnc(N[C@@H](c2ccccc2)[C@@H](C)CN(C)C)c1=O`, in series [1], the logD was 2. For the same compound, the solubility in series [2] (read-out: solubility) turned out to be 843 µM (≈ 387 µg/mL). Also, the hepatocyte CLint in series [3] was found to be 18 µL/min/1e6 cells.

On to `Cc1ccc(C(=O)NC2CC2)cc1-n1cnc2ccc(N3CCN(C)CC3)cc2c1=O` [AZD-6703], for which the solubility in series [2] was 730 µM (≈ 305 µg/mL). In addition, the hepatocyte CLint in [3] was < 3 µL/min/1e6 cells. Besides, the half-life (commonly the time needed for the level to fall by half in the phase considered) in series [4] is 0.7 h.

`CNCCOc1ccccc1C(C)(C)Nc1nccn(-c2cc(C(=O)NC3CC3)ccc2C)c1=O`: the logD in [1] is 1.6. Moreover, in series [2] (read-out: solubility), the solubility is 650 µM (≈ 309 µg/mL). The hepatocyte CLint in [3] is 20 µL/min/1e6 cells. Besides, the clearance (commonly a measure of how efficiently the substance is removed, as volume per time) in [5] worked out at 59 mL/min/kg; in [8], 16.5 mL/min/kg. In addition, the Vd in series [6] turned out to be 31.6 L/kg; in [9], 6.4 L/kg. The half-life was 13 h in [4] and 6.6 h in series [10]. The bioavailability (as a rule, the share of a dose that reaches the circulation, judged against a reference dose that is usually intravenous) in [7] was 6%. In addition, in [11], the Papp (usually a coefficient for how fast a substance crosses the barrier) is 4.2 ×10⁻⁶ cm/s. For the same compound, in series [12], the pKa (commonly the negative logarithm of the acid dissociation constant) worked out at 9.1. Moreover, the CL in series [13] was determined as 69%; in [14] it was 54%.

In [1], `Cc1ccc(C(=O)NC2CC2)cc1-n1ccnc(N[C@@H](c2ccccc2)[C@@H](C)CO)c1=O` displayed a log distribution coefficient (logD) of 2.6. In series [2] (read-out: solubility), the solubility was determined as 870 µM (≈ 376 µg/mL). In addition, in [3], the hepatocyte CLint turned out to be 19 µL/min/1e6 cells.

The compound `Cc1ccc(C(=O)NC2CC2)cc1-n1ccnc(N(C)Cc2ccccc2)c1=O` registered a logD in [1] of 3.2. The solubility in series [2] (read-out: solubility) was found to be 54 µM (≈ 21 µg/mL). Besides, the hepatocyte CLint in [3] stood at 59 µL/min/1e6 cells.

As to `Cc1ccc(C(=O)NC2CC2)cc1-n1ccnc(N[C@@H](c2ccccc2)[C@@H](C)CN2CCNCC2)c1=O`, the logD in series [1] amounted to 1.3. In addition, the solubility in series [2] (read-out: solubility) came out at 636 µM (≈ 318 µg/mL). Moreover, the hepatocyte CLint in series [3] was 15 µL/min/1e6 cells.

For the compound `COc1cccc(CNc2nccn(-c3cc(C(=O)NC4CC4)ccc3C)c2=O)c1`, the logD in series [1] amounted to 2.7. In series [2] (read-out: solubility), the solubility came to 351 µM (≈ 142 µg/mL). Moreover, the hepatocyte CLint in [3] was 7.4 µL/min/1e6 cells.

On to `Cc1ccc(C(=O)NC2CC2)cc1-n1ccnc(NCc2ccccc2)c1=O`, for which the logD in [1] is 2.6. Moreover, in series [2] (read-out: solubility), the solubility came to 23 µM (≈ 8.61 µg/mL). Also, in [3], the hepatocyte CLint turned out to be 4.5 µL/min/1e6 cells.

Regarding `CC[C@@H](Nc1nccn(-c2cc(C(=O)NC3CC3)ccc2C)c1=O)c1ccccc1OCCN1CCCC1`, the logD in series [1] worked out at 2.3. The solubility in series [2] (read-out: solubility) turned out to be 800 µM (≈ 413 µg/mL). In [3], the hepatocyte CLint came to 35 µL/min/1e6 cells.

In series [1], `Cc1ccc(C(=O)NC2CC2)cc1-n1ccnc(N[C@@H](c2ccccc2)[C@@H](C)CN2CCCCC2)c1=O` showed a logD of 3. The solubility in series [2] (read-out: solubility) stood at 908 µM (≈ 454 µg/mL). The hepatocyte CLint in series [3] amounted to 61 µL/min/1e6 cells. Also, the clearance in series [5] is 50 mL/min/kg. The Vd in series [6] came to 5.5 L/kg. The half-life in [4] was 7.8 h. In series [12], this compound registered a pKa of 8.4.

Take `CC[C@@H](Nc1nccn(-c2cc(C(=O)NC3CC3)ccc2C)c1=O)c1ccccc1`: the logD in series [1] was 3.3. Further, in [2] (read-out: solubility), the solubility is 270 µM (≈ 109 µg/mL). The hepatocyte CLint in series [3] came out at 26 µL/min/1e6 cells.

Take `Cc1ccc(C(=O)NC2CC2)cc1-n1ccnc(Nc2ccccc2)c1=O`: the logD in series [1] amounted to 3. For the same compound, in [2] (read-out: solubility), the solubility was 405 µM (≈ 146 µg/mL). Further, the hepatocyte CLint in [3] was found to be 3.3 µL/min/1e6 cells.

The compound `Cc1ccc(C(=O)NC2CC2)cc1-n1ccnc(NC(C)(C)c2ccccc2OCCN2CCCC2)c1=O` displayed a logD in [1] of 2.3. Besides, in series [2] (read-out: solubility), the solubility was > 1000 µM. Further, in series [3], the hepatocyte CLint is 157 µL/min/1e6 cells. In addition, the clearance in series [5] was found to be 99 mL/min/kg. The Vd in series [6] worked out at 16.6 L/kg. In series [4], the half-life is 8 h.

As for `Cc1ccc(C(=O)NC2CC2)cc1-n1ccnc(N[C@H](C)c2ccccc2)c1=O`, the log distribution coefficient (logD) in [1] came to 2.9. Further, the solubility in [2] (read-out: solubility) is 734 µM (≈ 285 µg/mL). Besides, the hepatocyte CLint in series [3] was 17 µL/min/1e6 cells.
